Columns and labels:
CYP24 promoter = experiment: CYP24-Luc reporter in normal epidermal keratinocytes; assay type: cell-based, human; details: 24 h
Description: The CYP24-Luc construct was a generous gift from Dr Tai Cheng (Boston University Medical Campus, Core Lab Director). It was originally developed by Vaisanen et al. (27). The details of the pLuc construct have been described previously (28-29). Normal epidermal keratinocytes were transfected using Lipofectamine Plus (Invitrogen, Carlsbad, Calif.) in Epilife medium with firefly luciferase reporter gene plasmid and with phRL-TK (expresses Renilla luciferase and serves as normalization control; Promega, Madison, Wis.). After transfection, cells were incubated for 24 hours in EpiLife medium with HKGS. Cells were then transferred to fresh media containing the compounds to be tested or vehicle (ethanol) and incubated for 24 hours. The firefly luciferase and Renilla luciferase signals were recorded with a TD-20/20 luminometer (Turner Designs, Sunnyvale, Calif.); background luminescence was subtracted and the resulting promoter-specific firefly signal was divided by the Renilla signal (proportional to the number of transfected cells). The values obtained were divided by the mean of control (untreated) cells.

HaCaT keratinocytes = experiment: Forward and side scatter (cell size, granularity) of HaCaT keratinocytes; assay type: cell-based, human; details: for Forward scatter [mean signal intensity] / Side scatter [mean signal intensity]: HaCaT keratinocytes, 10^−8 M, 24 h; for Forward scatter [mean signal intensity]: reflects cell size; for Side scatter [mean signal intensity]: reflects granularity; for forward and side scatter: result in words (Table 13)
Experimental: The FL-1 signal (collected from 10,000 events in side scatter/forward scatter window after debris exclusion) was recorded. Forward (relative to cell size) and side (relative to cell granularity) scatter histograms were generated and mean signal intensity was recorded. FL-1 signal values are presented as dMFI (difference between mean fluorescence intensity of sample stained with specific and isotype control antibody). Scatter signal values are presented as MSI (mean signal intensity). Signal intensities were analyzed with Cell Quest (BD Biosciences, San Diego, Calif.) and graphical representations of the FL-1 signal were prepared with WinMdi 2.8 (shareware from Joseph Trotter, The Scripps Research Institute, San Diego, Calif.).

involucrin = experiment: Real-time RT PCR involucrin mRNA, normal human epidermal keratinocytes; assay type: cell-based; details: 10^−8 M
Experimental: (§1) RNA was extracted using an Absolutely RNA RT-PCR Miniprep Kit (Stratagene, La Jolla, Calif.). Real time PCR and reverse transcription products were purchased from Applied Biosystems, Foster City, Calif. Reverse transcription was performed using Taqman® Reverse Transcription Reagents. The following PCR products were used: cytokeratin 14: Hs00265033_m1, involucrin: Hs00846307_s1, CYP27A1: Hs00168003_ml, CYP27B1: Hs00168017_ml, 18SrRNA: Hs99999901_s1. The reaction was performed with Taqman® Universal PCR Master Mix; data were collected on an ABI Prism 7700 and analyzed on Sequence Detector 1.9.1. Specific gene amounts were related to 18SrRNA by comparative CT method.

[1] = test system: normal epidermal keratinocytes; experiment: Flow cytometry DNA content, normal epidermal keratinocytes; assay type: cell-based, human; details: 10 nM
CYP27A1 = experiment: Real-time RT PCR CYP27A1 mRNA, normal epidermal keratinocytes; assay type: cell-based, human; details: 10^−8 M
Experimental: as §1

CYP27B1 = experiment: Real-time RT PCR CYP27B1 mRNA, normal epidermal keratinocytes; assay type: cell-based, human; details: 10^−8 M
Experimental: as §1

[2] = test system: human dermal fibroblast line; experiment: TGF-b1 induced hyaluronan synthesis by dermal fibroblasts; assay type: cell-based
Description: There were found no significant differences in fibroblast numbers per well and no significant differences in trypan blue exclusion between control wells vs those with secosteroids range 95-100% (data not shown).

VDRE = experiment: VDRE-Luc reporter (with siRNA) in HaCaT keratinocytes; assay type: cell-based, human; details: 24 h
Experimental: HaCaT keratinocytes were transfected with VDRE-Luc (gift from Dr. That Chen (27) and with scrambled or VDR siRNA (Dharmacon, Inc., Lafayette, Mo., on-Target plus smart pool human VDR L-003448-00, on-Target plus siControl non-targeting pool D-001810-10-05) using Lipofectamine Plus (Invitrogen, Carlsbad, Calif.) in DMEM medium. PhRL-TK (expresses Renilla luciferase) served as a normalization control; Promega, Madison, Wis.). After transfection, cells were incubated for 24 hours in DMEM with 5% FBS. Cells were then transferred to fresh media containing the compounds to be tested or vehicle (ethanol) and incubated for 24 hours. Levels of VDR and beta-actin 24 h after transfection were assessed with Western blot (VDR(D-6) antibody, sc-13133, 1:400, Santa Cruz, Inc., Santa Cruz, Calif.) performed as described previously (30.).
Construct CYP24-Luc and VDRE-Luc constructs were a generous gift from Dr. Tai Cheng, Ph.D. (Boston University Medical Campus, Core Lab Director). It was originally developed by Vaisanen et al. (27). PLuc and NFκB-Luc construct was described previously (28-29). huVDR construct was a generous gift from Dr. D. Bikle. HaCaT keratinocytes were transfected with NFκB-Luc, CYP-24-Luc, VDRE-Luc and hVDR constructs using Lipofectamine Plus (Invitrogen, Carlsbad, Calif.) in DMEM medium with firefly luciferase reporter gene plasmid and with phRL-TK.

[3] = test system: SK Mel 188 human melanoma cells; experiment: Soft agar colony formation, SKMEL 188 melanoma; assay type: cell-based
Experimental: Growth and survival of prostate cancer cells (PC3) and melanoma cells SKMEL 188 and AbC1 was determined by following their ability to form colonies in soft agar. Cells growing in monolayer culture were trypsinized and resuspended (1,000 cells/well) in 0.25 ml medium containing 0.4% agarose and 5% charcoal stripped serum (HyClone).
Cell suspensions were added to 0.8% agar layer in 24 well plates. […] Each condition was tested in quadruplicate. An ethanol solvent control (amount of ethanol equivalent to test) as well as a media-only control was included in the assay. Cells were allowed to grow at 37° with 5% CO2 over two weeks with secosteroids in fresh media (100 μL) being added after every 72 h. Soft agar colonies were scored and stained with 0.5 mg/ml MTT reagent (Promega), 500 μL/well after two weeks. Colonies were then counted under the microscope and number of units was calculated as number of colonies formed divided by the number of cells seeded×100.

[4] = HaCaT, 20-hydroxycholecalciferol at 0.1 nM

Compound | stimulation of transcriptional activity of the CYP24 promoter (CYP24 promoter) | Forward scatter [mean signal intensity] (HaCaT keratinocytes) | Side scatter [mean signal intensity] (HaCaT keratinocytes) | forward and side scatter (HaCaT keratinocytes; HaCaT) | side scatter, mean signal intensity (MSI) (HaCaT keratinocytes; [4]) | stimulation of involucrin mRNA (involucrin; 6 h) | inhibition of CYP27A1 expression (CYP27A1; 24 h) | inhibition of CYP27B1 expression (CYP27B1; 1 h) | further results
C=C1/C(=C\C=C2/CCC[C@]3(C)[C@@H]([C@H](C)CCCC(C)(C)O)CC[C@@H]23)C[C@@H](O)C[C@@H]1O [1α,25-dihydroxycholecalciferol, (5Z,7E)-9,10-secocholesta-5,7,10(19)-triene-1α,3β,25-triol, reference compound] | ~21 fold | 122.12 ± 23.98 mean signal intensity | 143.46 ± 15.76 mean signal intensity | only the effect on forward scatter was statistically significant | 219±4 | ~3.1 fold | ~2.9 fold | ~1.5 fold | cells in G1/0 ([1]; 24 h): 52±2%; cells in G2/M ([1]; 24 h): 35±5%; cells in S phase ([1]; 24 h): 13±7%; TGF-b1 induced hyaluronan synthesis ([2]; 10^−10 M): inhibited TGF-b1 induced hyaluronan synthesis
C=C1CC[C@H](O)C/C1=C/C=C1\CCC[C@@]2(C)[C@H]1CC[C@@H]2[C@@](C)(O)CCCC(C)C [20(OH)D3, (5Z,7E)-9,10-secocholesta-5,7,10(19)-triene-3β,20-diol] | ~2.5 fold |  |  |  | 210±6 | 4.7 fold | ~3.5 fold | ~4 fold | forward scatter, mean signal intensity (MSI) (HaCaT keratinocytes; [4]): 251±2; stimulation of involucrin mRNA (involucrin; 24 h): 1.8 fold; cells in G1/0 ([1]; 48 h): 52±5%; cells in G2/M ([1]; 48 h): 35±8%; cells in S phase ([1]; 48 h): 13±12%; inhibition of CYP27A1 expression (CYP27A1; 48 h): ~2.6 fold; inhibition of CYP27B1 expression (CYP27B1; 48 h): ~2 fold; increase in VDRE-driven luciferase activity (VDRE; 10 nM, scrambled siRNA): ~3 fold
C=C1CC[C@H](O)C/C1=C/C=C1\CCC[C@]2(C)[C@@H](C(C)(O)CC(O)CC(C)C)CC[C@@H]12 (stereo partly drawn) [20,23-dihydroxycholecalciferol, (5Z,7E)-9,10-secocholesta-5,7,10(19)-triene-3β,20,23-triol] |  | 87.74 ± 29.18 mean signal intensity | 154.4 ± 30 mean signal intensity | increased significantly both forward and side scatter |  |  |  |  | less colonies bigger than 0.5 mm ([3]; Sk Mel 188, 0.1 nM and 100 nM): approximately 50%; VDRE-Luc activity (VDRE; HaCaT, 10 nM and 100 nM): Activation of VDRE
C=C1CC[C@H](O)C/C1=C/C=C1\CCC[C@]2(C)[C@@H](C(C)=O)CC[C@@H]12 [pD3, (5Z,7E)-3β-hydroxy-9,10-secopregna-5,7,10(19)-trien-20-one] |  |  |  |  |  |  |  |  | colony formation on soft agar ([3]; SKMEL-188, dose dependent): suppress colony formation on soft agar; Hyaluronan CPM/Well (mean ± SEM) × 10^−5 FB ([2]; hrTGF-b1 5 ng/ml, secosteroids at 10^−10M): 135 ± 25 CPM/Well × 10^−5 FB

— patent publication US20120258938A1, “Enzymatic Production or Chemical Synthesis and Uses for 5,7-Dienes and UVB Conversion Products Thereof” (priority 2008, published 2012)
